Results as given in patent publication US6689756B2, “Treatment of neurological disease” (Integra LifeSciences Corporation, priority 2001, dated 2004).

Experiment: oxygen carrying capacity of nutrient formulation
Type: physicochemical
Settings: F44E formulations compared with the perfluorodecalin nutrient solution of Bell et al., Neurology 37:133, 1987
Excerpt: where m and n or independently at least 1 and m+n equals 6 to 10. Preferably, the double bond is trans. One preferred poly-fluorinated, oxygen-carrying compound is trans-Bis-perfluorobutyl ethylene (m and n each equal 4), which is also known as F44E. F44E formulations have a 25% greater oxygen carrying capacity than that of a prior nutrient solution made with perfluorodecalin, Bell et al., Neurology 37:133, 1987. Formulations comprising F44E are less viscous and relatively easier to perfuse.

greater oxygen carrying capacity than that of a prior nutrient solution made with perfluorodecalin: 25%
SMILES: FC(F)(F)C(F)(F)C(F)(F)C(F)(F)/C=C/C(F)(F)C(F)(F)C(F)(F)C(F)(F)F [F44E, trans-Bis-perfluorobutyl ethylene]
